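Exposure lasted 48 hours, with cells grown in 96-well plates and compounds tested at five concentrations. At the GI50, growth is halved. TGI: concentration producing complete growth inhibition.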
Columns and labels:
Experiment in all cases: NCI tumour cell line growth inhibition, 48 h; in the data active = GI50 below about 0.43 µM; inactive = the rest
CAKI-1 renal = system: CAKI-1 renal
EKVX NSCLC = system: EKVX NSCLC
PC-3 prostate = system: PC-3 prostate
SF-295 CNS = system: SF-295 CNS
BT-549 breast = system: BT-549 breast
SK-MEL-5 melanoma = system: SK-MEL-5 melanoma
LOX IMVI melanoma = system: LOX IMVI melanoma
SNB-19 CNS = system: SNB-19 CNS
UACC-62 melanoma = system: UACC-62 melanoma
K-562 leukemia = system: K-562 leukemia
UO-31 renal = system: UO-31 renal
SK-MEL-2 melanoma = system: SK-MEL-2 melanoma
NCI-H226 lung = system: NCI-H226 lung
OVCAR-8 ovarian = system: OVCAR-8 ovarian
HCT-15 colon = system: HCT-15 colon
MDA-MB-231 breast = system: MDA-MB-231 breast
SK-MEL-28 melanoma = system: SK-MEL-28 melanoma
SW-620 colon = system: SW-620 colon
ACHN renal = system: ACHN renal
OVCAR-5 ovarian = system: OVCAR-5 ovarian
DU-145 prostate = system: DU-145 prostate
HCT-116 colon = system: HCT-116 colon
RXF 393 renal = system: RXF 393 renal
786-0 renal = system: 786-0 renal
MALME-3M melanoma = system: MALME-3M melanoma
KM12 colon = system: KM12 colon
HS 578T breast = system: HS 578T breast
SF-268 CNS = system: SF-268 CNS
T-47D breast = system: T-47D breast
HCC-2998 colon = system: HCC-2998 colon
UACC-257 melanoma = system: UACC-257 melanoma
SF-539 CNS = system: SF-539 CNS
OVCAR-4 ovarian = system: OVCAR-4 ovarian
HOP-62 NSCLC = system: HOP-62 NSCLC
MOLT-4 leukemia = system: MOLT-4 leukemia
COLO 205 colon = system: COLO 205 colon
SNB-75 CNS = system: SNB-75 CNS
M14 melanoma = system: M14 melanoma
A498 renal = system: A498 renal
NCI-H23 lung = system: NCI-H23 lung
HOP-92 NSCLC = system: HOP-92 NSCLC
NCI/ADR-RES ovarian = system: NCI/ADR-RES ovarian
RPMI-8226 leukemia = system: RPMI-8226 leukemia
NCI-H460 lung = system: NCI-H460 lung
MCF7 breast = system: MCF7 breast
SK-OV-3 ovarian = system: SK-OV-3 ovarian
SN12C renal = system: SN12C renal
CCRF-CEM leukemia = system: CCRF-CEM leukemia
IGROV1 ovarian = system: IGROV1 ovarian
OVCAR-3 ovarian = system: OVCAR-3 ovarian
U251 CNS = system: U251 CNS
A549 NSCLC = system: A549 NSCLC
TK-10 renal = system: TK-10 renal
MDA-MB-435 = system: MDA-MB-435

COc1ccc2[nH]cc(C3(c4c[nH]c5ccc(OC)cc45)C(=O)Nc4ccc(Cl)cc43)c2c1
11.9 µM: TGI (EKVX NSCLC)
18.7 µM: TGI (OVCAR-8 ovarian) | TGI (A498 renal)
43.1 µM: TGI (OVCAR-5 ovarian)
21.3 µM: TGI (HOP-62 NSCLC)
5.43 µM: TGI (MDA-MB-231 breast)
29.2 µM: TGI (DU-145 prostate)
21.1 µM: TGI (MOLT-4 leukemia)
49.4 µM: TGI (SW-620 colon)
5.33 µM: TGI (LOX IMVI melanoma)
10.7 µM: TGI (HCT-116 colon)
13.6 µM: TGI (RXF 393 renal)
38.4 µM: TGI (PC-3 prostate)
42.8 µM: TGI (MCF7 breast)
13.1 µM: TGI (SK-MEL-28 melanoma)
30.5 µM: TGI (OVCAR-4 ovarian)
inactive: GI50 (CAKI-1 renal) 2.25 µM | GI50 (EKVX NSCLC) 2.16 µM | GI50 (PC-3 prostate) 3.96 µM | GI50 (SF-295 CNS) 2.1 µM | GI50 (BT-549 breast) 5.08 µM | GI50 (SK-MEL-5 melanoma) 2.56 µM | GI50 (LOX IMVI melanoma) 2.16 µM | GI50 (SNB-19 CNS) 5.14 µM | GI50 (UACC-62 melanoma) 3.61 µM | GI50 (K-562 leukemia) 3.69 µM | GI50 (UO-31 renal) 2.27 µM | GI50 (SK-MEL-2 melanoma) 2.9 µM | GI50 (NCI-H226 lung) 3.38 µM | GI50 (OVCAR-8 ovarian) 3.36 µM | GI50 (HCT-15 colon) 7.09 µM | GI50 (MDA-MB-231 breast) 2.08 µM | GI50 (SK-MEL-28 melanoma) 3.1 µM | GI50 (SW-620 colon) 3.89 µM | GI50 (ACHN renal) 3.71 µM | GI50 (OVCAR-5 ovarian) 4.08 µM | GI50 (DU-145 prostate) 4.73 µM | GI50 (HCT-116 colon) 3.63 µM | GI50 (RXF 393 renal) 3.4 µM | GI50 (786-0 renal) 4.43 µM | GI50 (MALME-3M melanoma) 5.02 µM | GI50 (KM12 colon) 2.52 µM | GI50 (HS 578T breast) 5.38 µM | GI50 (SF-268 CNS) 4.81 µM | GI50 (T-47D breast) 4.93 µM | GI50 (HCC-2998 colon) 3.26 µM | GI50 (UACC-257 melanoma) 2.84 µM | GI50 (SF-539 CNS) 4.39 µM | GI50 (OVCAR-4 ovarian) 3.67 µM | GI50 (HOP-62 NSCLC) 5.18 µM | GI50 (MOLT-4 leukemia) 4.12 µM | GI50 (COLO 205 colon) 1.88 µM | GI50 (SNB-75 CNS) 1.9 µM | GI50 (M14 melanoma) 4.06 µM | GI50 (A498 renal) 4.94 µM | GI50 (NCI-H23 lung) 3.03 µM | GI50 (HOP-92 NSCLC) 2.2 µM | GI50 (NCI/ADR-RES ovarian) 9.98 µM | GI50 (RPMI-8226 leukemia) 6.51 µM | GI50 (NCI-H460 lung) 3.18 µM | GI50 (MCF7 breast) 3.12 µM | GI50 (SK-OV-3 ovarian) 5.42 µM | GI50 (SN12C renal) 4.34 µM | GI50 (CCRF-CEM leukemia) 3.67 µM | GI50 (IGROV1 ovarian) 3.28 µM | GI50 (OVCAR-3 ovarian) 2.99 µM | GI50 (U251 CNS) 2.88 µM
18.6 µM: TGI (SN12C renal)
23.4 µM: TGI (SK-OV-3 ovarian)
6.26 µM: TGI (SF-295 CNS)
3.53 µM: TGI (COLO 205 colon)
56.8 µM: TGI (BT-549 breast)
83.9 µM: TGI (786-0 renal)
30 µM: TGI (NCI-H226 lung)
6.67 µM: TGI (SK-MEL-2 melanoma)
13.4 µM: TGI (U251 CNS)
10.1 µM: TGI (NCI-H460 lung)
> 100 µM: TGI (CAKI-1 renal) | TGI (SNB-19 CNS) | TGI (UACC-62 melanoma) | TGI (K-562 leukemia) | TGI (UO-31 renal) | TGI (HCT-15 colon) | TGI (HS 578T breast) | TGI (T-47D breast) | TGI (UACC-257 melanoma) | TGI (SF-539 CNS) | TGI (M14 melanoma) | TGI (NCI/ADR-RES ovarian) | TGI (RPMI-8226 leukemia) | TGI (CCRF-CEM leukemia)
21.2 µM: TGI (IGROV1 ovarian)
7.57 µM: TGI (SK-MEL-5 melanoma)
14 µM: TGI (SNB-75 CNS)
21.9 µM: TGI (ACHN renal)
8.5 µM: TGI (OVCAR-3 ovarian)
6.33 µM: TGI (KM12 colon)
10.3 µM: TGI (HOP-92 NSCLC)
11.4 µM: TGI (HCC-2998 colon)
57.9 µM: TGI (SF-268 CNS)
23.2 µM: TGI (NCI-H23 lung)
46.5 µM: TGI (MALME-3M melanoma)

CN(C)C1(N(C)C)Oc2c(c(=O)n(C)c(=O)n2C)C(c2ccc(F)cc2)C1(F)F (stereo not drawn)
> 100 µM: TGI (CAKI-1 renal) | TGI (EKVX NSCLC) | TGI (PC-3 prostate) | TGI (SF-295 CNS) | TGI (BT-549 breast) | TGI (SK-MEL-5 melanoma) | TGI (LOX IMVI melanoma) | TGI (SNB-19 CNS) | TGI (UACC-62 melanoma) | TGI (UO-31 renal) | TGI (SK-MEL-2 melanoma) | TGI (A549 NSCLC) | TGI (NCI-H226 lung) | TGI (TK-10 renal) | TGI (HCT-15 colon) | TGI (MDA-MB-231 breast) | TGI (SK-MEL-28 melanoma) | TGI (SW-620 colon) | TGI (ACHN renal) | TGI (OVCAR-5 ovarian) | TGI (DU-145 prostate) | TGI (HCT-116 colon) | TGI (RXF 393 renal) | TGI (786-0 renal) | TGI (KM12 colon) | TGI (MDA-MB-435) | TGI (SF-268 CNS) | TGI (T-47D breast) | TGI (HCC-2998 colon) | TGI (UACC-257 melanoma) | TGI (OVCAR-4 ovarian) | TGI (HOP-62 NSCLC) | TGI (COLO 205 colon) | TGI (SNB-75 CNS) | TGI (M14 melanoma) | TGI (A498 renal) | TGI (NCI-H23 lung) | TGI (HOP-92 NSCLC) | TGI (NCI/ADR-RES ovarian) | TGI (RPMI-8226 leukemia) | TGI (NCI-H460 lung) | TGI (MCF7 breast) | TGI (SK-OV-3 ovarian) | TGI (CCRF-CEM leukemia) | TGI (OVCAR-3 ovarian) | TGI (U251 CNS)
